According to US20210254101A1, “METHODS FOR TREATING SPINAL CORD INJURY” (THE CHILDREN'S MEDICAL CENTER CORPORATION, priority 2018, published 2021):

How the values were obtained:
[1] = tested on: mice with staggered lesions; assay: Basso Mouse Scale (BMS) open field locomotion after staggered T7/T10 lateral hemisections; assay type: in vivo
Procedure: A staggered lesion paradigm was optimized in which two lateral hemisections were performed at the thoracic (T) 7 and T10 levels simultaneously (FIGS. 1A and 1B), similar to the model previously described (Courtine 2008; van den Brand, 2012). The T10 lesion is a lateral hemisection that ends at the spinal cord midline, while the T7 lesion, contralateral to the T10 lesion, extends slightly beyond the midline (FIG. 1A). With this double hemisection procedure, all descending axons passing T10 are severed, leaving only those crossing the midline between T7 and T10 intact (FIG. 1C). Indeed, by immunohistochemistry with anti-5-HT antibodies, which label serotonergic axons, descending serotonergic axons could be detected in the spinal cord segments between the lesions, but not in the lumbar spinal cord (FIG. 1C). Thus, a relay zone remains between and around the lesions (T7 and T10) where descending axons terminate, and where some propriospinal neurons maintain their connections with lumbar spinal neurons (see herein below).
This double hemisection SCI model was used to seek small molecule compounds that could reactivate the spared, but dormant, spinal connections by monitoring hindlimb motor performance during over-ground locomotion. To this end, daily compound treatment was started 1 week after injury and then monitored the BMS scores approximately 24 hours after the previous day's compound treatment on a weekly basis (FIG. 1D). Behavioral outcomes observed at these time points likely reflect sustained effects of the treatment, which are more clinically relevant.
Surgical Procedures. The procedure of T7 and T10 double lateral hemisection was similar to that described elsewhere (Courtine et al., 2008; van den Brand et al., 2012). Briefly, a midline incision was made over the thoracic vertebrae, followed by a T7-10 laminectomy. For the T7 right side over-hemisection, a scalpel and micro-scissors were carefully used to interrupt the bilateral dorsal column at T7, and ensured no sparing of ventral pathways on the contralateral side (FIG. 1A). For the T10 left hemisection, a scalpel and micro-scissors were carefully used to interrupt only the left side of the spinal cord until the midline. The muscle layers were then sutured, and the skin was secured with wound clips. All animals received post hoc histological analysis, and those with spared 5HT axons at the lumbar spinal cord (L2-5) were excluded for behavioral analysis (FIG. 7).
(§1) Behavioral Experiments. Motor function was evaluated with a locomotor open field rating scale on the Basso Mouse Scale (BMS). For transient pharmacological treatments, ten to fifteen minutes (van den Brand et al., 2012) prior to behavioral tests (grounding walking, all of which were performed individually), mice received systematic administration (i.p.) of the neural modulators listed above. It is important to note that with a single intraperitoneal injection, plasma CNO levels peak at 15 min and become very low by 2 h after injection (Guettier et al., 2009). For chronic pharmacological treatments, 24 hours prior to behavioral tests, mice received systematic administration of the compounds listed above. All behavioral tests were completed within 1-3 hours. For detailed hindlimb kinematic analysis, mice from different groups were placed in the MotoRater (TSE Systems, (Zorner et al., 2010)), and all kinematic analysis was performed based on data collected by the MotoRater.

[2] = tested on: mice with a complete T8 spinal cord transection; assay: BMS open field locomotion after complete T8 spinal cord transection; assay type: in vivo, mouse; conditions: complete T8 transection; same treatment as in staggered lesion; FIG. 7E
Description: CLP290's effects could result from reactivating the spared dormant descending connections in the spinal cord after SCI. However, it could also act directly on the lumbar spinal cord, independently of descending inputs. […] Therefore, different from this transient effector that acts directly on the lumbar spinal cord, the effects of CLP290 on functional improvement are dependent on spared connections.
The procedure of T8 full transection was similar to that described elsewhere (Courtine et al., 2009). Briefly, a midline incision was made over the thoracic vertebrae, followed by a T8 laminectomy. The complete T8 transection was then performed carefully using both a scalpel and micro-scissors. The muscle layers were then sutured and the skin was secured with wound clips.
as §1

[3] = tested on: mice with staggered lesions; assay: Hindlimb kinematic analysis (MotoRater) and EMG recording of TA and GS muscles during stepping; assay type: in vivo, mouse
Description: This extent of recovery is functionally significant, as stepping ability has been implicated as the limiting step for functional recovery in severe injury models (Schucht et al., 2002).
EMG Recording and cortical stimulation. The procedure for EMG recording in free moving animals was similar to that described previously (Pearson et al., 2005). In brief, at 9 weeks after surgery, 5 mice from each group (Control, CLP290 and AAV-KCC2 treated mice) underwent implantation of customized bipolar electrodes into selected hindlimb muscles to record EMG activity. Electrodes (793200, A-M Systems) were led by 30 gauge needles and inserted into the mid-belly of the medial gastrocnemius (GS) and tibialis anterior (TA) muscles of the right hindlimb. A common ground wire was inserted subcutaneously in the neck-shoulder area. Wires were routed subcutaneously through the back to a small percutaneous connector securely cemented to the skull of the mouse. EMG signals were acquired using a differential AC amplifier (1700, A-M Systems, WA) with 10-1000 Hz filtration, sampled at 4 kHz using a digitizer (PowerLab 16/35, ADInstruments), and analyzed by LabChart 8 (ADInstruments).
as §1

[4] = tested on: mice with staggered lesions; assay: Cortical stimulation with EMG responses recorded in the TA muscle; assay type: in vivo, mouse; conditions: injured mice, compared to controls; FIG. 5D-5F
Procedure: To test directly if the treated spinal cord could more efficiently relay descending inputs to the lumbar spinal cord, cortical stimulation was performed and recorded EMG responses in the TA muscle (FIG. 5D). […] Thus, KCC2 treatment facilitates the transmission of descending inputs from the brain to the lumbar spinal cord.
For epidural stimulation and EMG recording, a customized head plate was secured over the skull, and a monopolar stimulation electrode (SSM33A05, World Precision Instruments, Inc.) was positioned epidurally over the representative hindlimb area of left motor cortex. A train of electrical stimuli (0.2 ms biphasic pulse, 100 ms pulse train, 20 Hz, 0.5-1.5 mA) was generated by pulse generator and isolator (Master 9 and Iso-Flex, A.M.P.I.), and delivered during quadrupedal standing in fully awake condition. Testing was performed without and with electrochemical stimulations. Peak-to-peak amplitude and latency of evoked responses were computed from EMG recordings of the right TA muscle.

[5] = Side effects of compounds tested in the study; assay type: in vivo, mouse; conditions: even at high doses; data not shown
neuropathic pain = conditions: animal models; Gagnon et al., 2013; Ferrini et al., 2017; Knabl et al., 2008; cited from earlier work

SMILES: O=C1N=C(N2CCCCN2)S/C1=C\c1ccc(F)cc1OC(=O)N1CCCC1 [CLP290, [5-Fluoro-2-[(Z)-(2-hexahydropyridazin-1-yl-4-oxo-thiazol-5-ylidene)methyl]phenyl] pyrrolidine-1-carboxylate]
- mice that recovered consistent hindpaw plantar placement and weight-bearing stepping ([1]; 9 weeks post staggered injury, FIG. 1F): 80%
- additional functional recovery (BMS) from accompanying CLP290 treatment ([1]; Vgat-Cre mice with AAV-FLEX-KCC2, CLP290 versus vehicle, FIG. 10E): did not significantly enhance functional recovery at most time points
- time BMS scores remained significantly higher than controls after stopping treatment ([1]; after withdrawal following 10-week treatment, FIG. 1G): 1-2 weeks
- stepping ability / functional recovery (BMS), chronic compound treatment ([1]; daily i.p. treatment from 1 week after injury, BMS about 24 h after previous dose, FIG. 1E, 7A): induced sustained functional recovery
- time at which functional recovery (BMS) first appeared ([1]; daily i.p. treatment started 1 week after injury, BMS about 24 h after previous dose, FIG. 1E): 4-5 weeks
- time from which functional recovery (BMS) became significant ([1]; weeks after treatment, daily i.p. treatment, BMS about 24 h after previous dose, FIG. 1E): 7 weeks
- functional recovery (BMS), chronic treatment [2]: failed to promote any significant functional recovery
- total hindlimb stride length ([3]; 9 weeks post staggered injury, versus vehicle, FIG. 1J): significantly increased
- TA/GS activation pattern during stepping gait ([3]; compared with alternating TA/GS activation in intact mice, FIG. 1K): co-activation of TA and GS during the swing phase
- oscillation of hindlimb joints ([3]; staggered-lesioned mice during stepping, FIGS. 1H-1K): significantly increased oscillation of hindlimb joints
- bodyweight support during stepping ([3]; staggered-lesioned mice, 8-9 weeks after injury): could partially support their body weight
- EMG activity of tibialis anterior (TA) and gastrocnemius soleus (GS) muscles ([3]; staggered-lesioned mice, FIG. 1K, 2H): showed both TA and GS activity
- amplitude of evoked EMG signals in TA muscle [4]: significantly increased
- side effects [5]: negligible side effects even at high doses
- effect on neuropathic pain (neuropathic pain): effectively treat neuropathic pain in animal models
